Source: article PMC12471852, “Design and Synthesis of Marine-Inspired Itampolin A Derivatives to Overcome Chemoresistance in NSCLC via Cholesterol Homeostasis Modulation” (Marine Drugs, 2025)
Several values for one entry are separate records, joined by “and”; a condition that tells them apart may be missing. Identical values can stand only once. Like-named read-outs stand apart in the source and are kept apart here.

What was measured:
p38α [1] = biological target: T1, p38α (Homo sapiens, UniProt Q16539); assay: ADP-Glo Kinase Assay, p38α MAP kinase inhibition; assay type: biochemical; conditions: read-out: p38α MAP kinase inhibitory activity IC50
T1 sequence (Q16539 whole entry): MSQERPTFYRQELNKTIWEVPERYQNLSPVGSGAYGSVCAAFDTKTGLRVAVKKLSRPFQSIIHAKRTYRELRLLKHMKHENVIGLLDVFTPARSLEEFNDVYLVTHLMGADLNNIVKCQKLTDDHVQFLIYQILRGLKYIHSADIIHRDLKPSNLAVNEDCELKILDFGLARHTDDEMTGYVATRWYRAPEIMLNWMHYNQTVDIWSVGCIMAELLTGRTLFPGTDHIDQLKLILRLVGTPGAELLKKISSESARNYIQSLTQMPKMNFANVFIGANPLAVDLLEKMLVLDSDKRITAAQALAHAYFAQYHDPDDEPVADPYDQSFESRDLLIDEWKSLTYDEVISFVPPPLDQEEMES
Procedure: The capacity of brominated tyrosine derivatives to inhibit p38α activity was evaluated using the ADP-Glo Kinase Assay.

p38α [2] = biological target: T1, p38α; design: method as in PMID 30642059; conditions: compounds 6a–6o synthesized in previous work; read-out: p38α MAP kinase inhibitory activity IC50; cited from earlier work
PC9 cells = assay: MTT anti-proliferation assay, PC9 cells; assay type: cell-based, human; conditions: for MTT, PC9, value relative to control (=100), single replicate: 24 h
Procedure: (§1) To evaluate the tumor-selective activity of compounds 4l and 4m, dose–response studies were performed on wild-type PC9 and gefitinib-resistant PC9/GR cell lines. […] Subtoxic concentrations of 25, 50, and 75 μM were employed to ensure specificity for drug-resistant phenotypes while preserving normal cell viability. […] To assess long-term proliferative potential, clonogenic survival assays were performed. Cells pretreated with 4l (24 h) were trypsinized to generate single-cell suspensions, plated at 300 cells/well, and cultured for 14 days. […] Cell migration ability was evaluated by the scratch healing assay. […] To evaluate the pro-apoptotic efficacy of 4l, we employed a dual-staining approach using Annexin V-FITC and propidium iodide (PI) for quadrant-specific quantification of programmed cell death. Annexin V binds externalized phosphatidylserine (PS), a hallmark of early apoptosis, while PI permeabilization discriminates late-stage apoptotic or necrotic cells.
(§2) The human normal lung epithelial cell line BEAS-2B, non-small cell lung carcinoma (NSCLC) cell line PC9, and gefitinib-resistant PC9/GR cell line were purchased from Procell Life Science & Technology Co., Ltd. (Wuhan, China). All cell lines were maintained in RPMI-1640 medium (BI, Beit Haemek, Mateh Asher, Israel) supplemented with 10% fetal bovine serum (FBS, Gibco, Thermo Fisher Scientific, Waltham, MA, USA) and 1% penicillin–streptomycin–amphotericin B sterile solution (Solarbio, Beijing, China). Cells were cultured at 37 °C in a humidified incubator with 5% CO2. For subculturing, cells were harvested using trypsin-EDTA solution upon reaching 70–80% confluence and resuspended at appropriate densities for subsequent experiments.
(§3) MTT: Cells (5 × 10^4/mL) were treated with 4l (25–100 μM, 24–48 h), incubated with MTT (10 μL/well, 4–6 h), and dissolved in DMSO. Absorbance (490 nm) was measured to assess viability.

PC9/GR cells = assay: MTT anti-proliferation assay, gefitinib-resistant PC9/GR cells; assay type: cell-based, human; conditions: for MTT, PC9/GR, value relative to control (=100), single replicate: 24 h
Procedure: as §1, §2, §3

## CC(C)Oc1ccc(NC(=O)NCCc2cc(Br)c(O)c(Br)c2)cc1 [4h, 1-(3,5-dibromo-4-hydroxyphenethyl)-3-(4-isopropoxyphenyl)urea]
p38α [1]
  IC50: 850 ± 32.7 nM

## CCCOc1ccc(NC(=O)NCCc2cc(Br)c(O)c(Br)c2)cc1 [4c, 1-(3,5-dibromo-4-hydroxyphenethyl)-3-(4-propoxyphenyl)urea]
p38α [1]
  IC50: 297 ± 17.5 nM

## COCCOc1ccc(NC(=O)NCCc2cc(Br)c(O)c(Br)c2)cc1 [4o, 1-(3,5-dibromo-4-hydroxyphenethyl)-3-(4-(2-methoxyethoxy)phenyl)urea]
p38α [1]
  IC50: 11.3 ± 26.2 nM

## COc1c(Br)cc(CCNC(=O)Nc2ccc(OCCCN3CCOCC3)cc2)cc1Br [6g]
p38α [2]
  IC50: 11.7 ± 3 nM

## O=C(NCCc1cc(Br)c(O)c(Br)c1)Nc1cccc(Cl)c1 [4i, 1-(3-chlorophenyl)-3-(3,5-dibromo-4-hydroxyphenethyl)urea]
p38α [1]
  IC50: 13.9 ± 2.7 nM

## O=C(NCCc1cc(Br)c(O)c(Br)c1)Nc1ccccc1F [4m, 1-(3,5-dibromo-4-hydroxyphenethyl)-3-(2-fluorophenyl)urea]
PC9 cells; 25 (μM)
  MTT, PC9, value relative to control (=100), single replicate: 72.71 and 78.44 and 89.41 and 73.662
PC9 cells; 50 (μM)
  MTT, PC9, value relative to control (=100), single replicate: 73.32 and 75.35 and 64.23 and 80.16
PC9 cells; 75 (μM)
  MTT, PC9, value relative to control (=100), single replicate: 63.32 and 73.36 and 69.44 and 65.21
PC9 cells; 100 (μM)
  MTT, PC9, value relative to control (=100), single replicate: 61.89 and 69.88 and 70.31 and 63.67
PC9 cells; Homo sapiens, PC-9, wild-type PC9, MTT, 24-hour treatment, 0–100 μM, read-out: IC50, growth inhibition
  IC50: 55500 nM
PC9/GR cells; 25 (μM)
  MTT, PC9/GR, value relative to control (=100), single replicate: 62.45 and 66.61 and 79.63 and 68.61
PC9/GR cells; 50 (μM)
  MTT, PC9/GR, value relative to control (=100), single replicate: 61.78 and 67.43 and 60.72 and 69.73
PC9/GR cells; 75 (μM)
  MTT, PC9/GR, value relative to control (=100), single replicate: 48.89 and 53.34 and 39.63 and 40.04
PC9/GR cells; 100 (μM)
  MTT, PC9/GR, value relative to control (=100), single replicate: 37.64 and 39.62 and 40.69 and 41.33
PC9/GR cells; Homo sapiens, gefitinib-resistant PC9/GR, MTT, 24-hour treatment, 0–100 μM, read-out: IC50, growth inhibition
  IC50: 39000 nM
PC9/GR cells; PC9/GR versus PC9
  selectivity towards cells with the drug-resistant phenotype: did not demonstrate significant selectivity
p38α [1]
  IC50: 10.2 ± 2.3 nM

## O=C(NCCc1cc(Br)c(O)c(Br)c1)Nc1ccccc1Cl [4j, 1-(2-chlorophenyl)-3-(3,5-dibromo-4-hydroxyphenethyl)urea]
p38α [1]
  IC50: 74.4 ± 13 nM

## COc1ccc(NC(=O)NCCc2cc(Br)c(O)c(Br)c2)cc1 [4a, 1-(3,5-dibromo-4-hydroxyphenethyl)-3-(4-methoxyphenyl)urea]
p38α [1]
  IC50: 265 ± 20.7 nM

## CCOc1ccc(NC(=O)NCCc2cc(Br)c(O)c(Br)c2)cc1 [4b, 1-(3,5-dibromo-4-hydroxyphenethyl)-3-(4-ethoxyphenyl)urea]
p38α [1]
  IC50: 170 ± 12.1 nM

## O=C(NCCc1cc(Br)c(O)c(Br)c1)Nc1ccc(Br)cc1 [4k, 1-(4-bromophenyl)-3-(3,5-dibromo-4-hydroxyphenethyl)urea]
p38α [1]
  IC50: 51.1 ± 9.5 nM

## CCCCOc1ccc(NC(=O)NCCc2cc(Br)c(O)c(Br)c2)cc1 [4d, 1-(4-butoxyphenyl)-3-(3,5-dibromo-4-hydroxyphenethyl)urea]
p38α [1]
  IC50: 914 ± 44.3 nM

## O=C(NCCc1cc(Br)c(O)c(Br)c1)Nc1ccc(OCCCN2CCOCC2)cc1 [4g, 1-(3,5-dibromo-4-hydroxyphenethyl)-3-(4-(3-morpholinopropoxy)phenyl)urea]
p38α [1]
  IC50: 167 ± 13.6 nM

## Cc1ccc(NC(=O)NCCc2cc(Br)c(O)c(Br)c2)cc1 [4n, 1-(3,5-dibromo-4-hydroxyphenethyl)-3-(p-tolyl)urea]
p38α [1]
  IC50: 38.7 ± 8.1 nM
